# Reference: ChEMBL document CHEMBL1201862, “PubChem BioAssay data set” (2004)
# Several values for one entry are separate records, joined by “and”; a condition that tells them apart may be missing. Equal entries are not always repeated.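 The compound was tested at five concentrations on cells cultured in 96-well plates, with a 48-hour exposure period. The concentration for 50% growth inhibition is given as GI50.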 Activity calls are given as the source filed them. Cut-off read from the data, not from the text of the source: active = GI50 up to about 1.1 µM and inactive = higher.
# Legend:
# Experiment in all cases: inhibition of tumour cell growth, NCI panel, 48 h
# 786-0 = system: 786-0
# A498 = system: A498
# ACHN = system: ACHN
# BT-549 = system: BT-549
# CAKI-1 = system: CAKI-1
# CCRF-CEM = system: CCRF-CEM
# COLO 205 = system: COLO 205
# DU-145 = system: DU-145
# EKVX = system: EKVX
# HCT-116 = system: HCT-116
# HCT-15 = system: HCT-15
# HL-60 = system: HL-60
# HOP-62 = system: HOP-62
# HT-29 = system: HT-29
# Hs-578T = system: Hs-578T
# IGROV-1 = system: IGROV-1
# K562 = system: K562
# KM12 = system: KM12
# LOX IMVI = system: LOX IMVI
# M14 = system: M14
# MCF7 = system: MCF7
# MDA-MB-231 = system: MDA-MB-231
# MDA-MB-435 = system: MDA-MB-435
# MDA-N = system: MDA-N
# MOLT-4 = system: MOLT-4
# Malme-3M = system: Malme-3M
# NCI-H226 = system: NCI-H226
# NCI-H23 = system: NCI-H23
# NCI-H460 = system: NCI-H460
# NCI/ADR-RES = system: NCI/ADR-RES
# OVCAR-3 = system: OVCAR-3
# OVCAR-5 = system: OVCAR-5
# OVCAR-8 = system: OVCAR-8
# PC-3 = system: PC-3
# RPMI-8226 = system: RPMI-8226
# RXF 393 = system: RXF 393
# SF-268 = system: SF-268
# SF-295 = system: SF-295
# SF-539 = system: SF-539
# SK-MEL-28 = system: SK-MEL-28
# SK-MEL-2 = system: SK-MEL-2
# SK-MEL-5 = system: SK-MEL-5
# SK-OV-3 = system: SK-OV-3
# SN12C = system: SN12C
# SNB-19 = system: SNB-19
# SNB-75 = system: SNB-75
# SR = system: SR
# SW-620 = system: SW-620
# TK-10 = system: TK-10
# U-251 = system: U-251
# UACC-257 = system: UACC-257
# UACC-62 = system: UACC-62
# UO-31 = system: UO-31
# A549 = system: A549
# HCC 2998 = system: HCC 2998
# HOP-92 = system: HOP-92
# NCI-H522 = system: NCI-H522
# OVCAR-4 = system: OVCAR-4
# T47D = system: T47D
smiles,measurement,setting,value
S=C(c1c[nH]c2ccccc12)N1CCOCC1,GI50,786-0,> 100 µM (inactive)
same,GI50,A498,> 100 µM (inactive)
same,GI50,ACHN,> 100 µM (inactive)
same,GI50,BT-549,> 100 µM (inactive)
same,GI50,CAKI-1,> 100 µM (inactive)
same,GI50,CCRF-CEM,> 100 µM (inactive)
same,GI50,COLO 205,> 100 µM (inactive)
same,GI50,DU-145,> 100 µM (inactive)
same,GI50,EKVX,43.1 µM (inactive)
same,GI50,HCT-116,> 100 µM (inactive)
same,GI50,HCT-15,> 100 µM
same,GI50,HL-60,> 100 µM (inactive)
same,GI50,HOP-62,> 100 µM (inactive)
same,GI50,HT-29,> 100 µM (inactive)
same,GI50,Hs-578T,22.3 µM (inactive)
same,GI50,IGROV-1,36.3 µM (inactive)
same,GI50,K562,> 100 µM (inactive)
same,GI50,KM12,> 100 µM (inactive)
same,GI50,LOX IMVI,> 100 µM (inactive)
same,GI50,M14,> 100 µM (inactive)
same,GI50,MCF7,> 100 µM (inactive)
same,GI50,MDA-MB-231,> 100 µM (inactive)
same,GI50,MDA-MB-435,> 100 µM (inactive)
same,GI50,MDA-N,> 100 µM (inactive)
same,GI50,MOLT-4,> 100 µM (inactive)
same,GI50,Malme-3M,25 µM (inactive)
same,GI50,NCI-H226,24.6 µM (inactive)
same,GI50,NCI-H23,> 100 µM (inactive)
same,GI50,NCI-H460,> 100 µM (inactive)
same,GI50,NCI/ADR-RES,> 100 µM (inactive)
same,GI50,OVCAR-3,> 100 µM (inactive)
same,GI50,OVCAR-5,> 100 µM (inactive)
same,GI50,OVCAR-8,> 100 µM (inactive)
same,GI50,PC-3,> 100 µM (inactive)
same,GI50,RPMI-8226,> 100 µM (inactive)
same,GI50,RXF 393,> 100 µM (inactive)
same,GI50,SF-268,14.1 µM (inactive)
same,GI50,SF-295,> 100 µM (inactive)
same,GI50,SF-539,> 100 µM (inactive)
same,GI50,SK-MEL-28,> 100 µM (inactive)
same,GI50,SK-MEL-2,> 100 µM (inactive)
same,GI50,SK-MEL-5,> 100 µM (inactive)
same,GI50,SK-OV-3,> 100 µM (inactive)
same,GI50,SN12C,> 100 µM (inactive)
same,GI50,SNB-19,> 100 µM (inactive)
same,GI50,SNB-75,520 nM (active)
same,GI50,SR,> 100 µM (inactive)
same,GI50,SW-620,> 100 µM (inactive)
same,GI50,TK-10,> 100 µM (inactive)
same,GI50,U-251,> 100 µM (inactive)
same,GI50,UACC-257,> 100 µM (inactive)
same,GI50,UACC-62,> 100 µM (inactive)
same,GI50,UO-31,45.8 µM (inactive)
CC(=O)OC1OC(C2c3cccc(O)c3C(=O)c3c(O)cc(CO)cc32)C(O)C(O)C1O (centres undefined),GI50,786-0,4.18 µM (inactive) and 4.13 µM (inactive)
same,GI50,A498,6.34 µM (inactive)
same,GI50,A549,2.8 µM (inactive) and 5.56 µM (inactive)
same,GI50,BT-549,4.66 µM (inactive) and 5.7 µM (inactive)
same,GI50,CAKI-1,2.78 µM (inactive) and 2.23 µM (inactive)
same,GI50,CCRF-CEM,3.04 µM (inactive) and 3.18 µM (inactive)
same,GI50,DU-145,4.55 µM (inactive) and 4.88 µM (inactive)
same,GI50,EKVX,3.78 µM (inactive) and 2.64 µM (inactive)
same,GI50,HCC 2998,1.85 µM (inactive) and 3.03 µM (inactive)
same,GI50,HCT-116,3.01 µM (inactive) and 2.92 µM (inactive)
same,GI50,HCT-15,3.37 µM and 3.51 µM
same,GI50,HL-60,2.32 µM (inactive) and 2 µM (inactive)
same,GI50,HOP-92,3.1 µM (inactive)
same,GI50,HT-29,3.74 µM (inactive) and 3.92 µM (inactive)
same,GI50,Hs-578T,2.31 µM (inactive) and 2.22 µM (inactive)
same,GI50,IGROV-1,4.14 µM (inactive) and 3.87 µM (inactive)
same,GI50,K562,3.16 µM (inactive) and 3 µM (inactive)
same,GI50,LOX IMVI,2.87 µM (inactive) and 3.03 µM (inactive)
same,GI50,M14,10.5 µM (inactive) and 9.42 µM (inactive)
same,GI50,MCF7,5.04 µM (inactive) and 4.75 µM (inactive)
same,GI50,MDA-MB-435,3.72 µM (inactive) and 3.19 µM (inactive)
same,GI50,MDA-N,3.74 µM (inactive) and 3.13 µM (inactive)
same,GI50,MOLT-4,4.13 µM (inactive) and 4.58 µM (inactive)
same,GI50,Malme-3M,4.39 µM (inactive) and 3.45 µM (inactive)
same,GI50,NCI-H23,3.08 µM (inactive) and 3.33 µM (inactive)
same,GI50,NCI-H460,3.43 µM (inactive) and 3.48 µM (inactive)
same,GI50,NCI-H522,4.51 µM (inactive) and 2.91 µM (inactive)
same,GI50,NCI/ADR-RES,3.88 µM (inactive) and 2.93 µM (inactive)
same,GI50,OVCAR-4,5.38 µM (inactive) and 6.61 µM (inactive)
same,GI50,OVCAR-5,3.94 µM (inactive) and 2.4 µM (inactive)
same,GI50,OVCAR-8,4.31 µM (inactive) and 3.61 µM (inactive)
same,GI50,PC-3,3.01 µM (inactive) and 2.32 µM (inactive)
same,GI50,RXF 393,9.4 µM (inactive) and 6.84 µM (inactive)
same,GI50,SF-268,4.97 µM (inactive) and 5.77 µM (inactive)
same,GI50,SF-295,2.72 µM (inactive) and 3.62 µM (inactive)
same,GI50,SF-539,2 µM (inactive) and 1.95 µM (inactive)
same,GI50,SK-MEL-28,2.92 µM (inactive)
same,GI50,SK-MEL-2,2.32 µM (inactive) and 2.74 µM (inactive)
same,GI50,SK-MEL-5,1.53 µM (inactive) and 1.68 µM (inactive)
same,GI50,SK-OV-3,4.14 µM (inactive) and 2.62 µM (inactive)
same,GI50,SN12C,7.11 µM (inactive) and 5.35 µM (inactive)
same,GI50,SNB-19,2.88 µM (inactive) and 3.33 µM (inactive)
same,GI50,SNB-75,3.27 µM (inactive) and 5.27 µM (inactive)
same,GI50,SR,2.67 µM (inactive) and 1.93 µM (inactive)
same,GI50,SW-620,3.66 µM (inactive) and 3.03 µM (inactive)
same,GI50,T47D,1.41 µM (inactive) and 1.73 µM (inactive)
same,GI50,TK-10,5.69 µM (inactive) and 5.81 µM (inactive)
same,GI50,U-251,3.66 µM (inactive)
same,GI50,UACC-257,6.47 µM (inactive) and 7.45 µM (inactive)
same,GI50,UACC-62,4.22 µM (inactive) and 4.29 µM (inactive)
same,GI50,UO-31,6.46 µM (inactive) and 7.96 µM (inactive)
